Measured values published in patent US8317991B2, “Process for electrokinetic migration through liquid membranes” (priority 2005, dated 2012).
Counter-ions that a name gives are not always drawn.

What was measured:
[1] = Electrokinetic cross-membrane isolation (ECMI) of basic drugs; recovery in acceptor solution by capillary electrophoresis; type: physicochemical; design: key to Recovery: *: Recovery was observed, but results were unreliable due to large standard deviations; settings: for Recovery: liquid membrane 2-octanone, 300 V, 5 min, 5.2 mm vial; for Enrichment: optimal ECMI, 300 μl sample to 30 μl acceptor
Method: The DC power supply used was a model XFR 300-9 (Xantrex, Burnaby, BC, Canada) with a programmable voltage in the range 0 to 300 V, providing currents in the range 0 to 9 A. Simple steel wires with a diameter of 0.2 mm were used as electrodes in the sample and acceptor solutions, and were connected to the power supply. As sample compartment, 800 μL polypropylene vials with cap were used with a height of 35 mm and with an internal diameter of 5.2 mm (unknown supplier). […] The porous hollow fiber used for immobilization of the artificial liquid membrane and for housing the acceptor solution was a PP Q3/2 polypropylene hollow fiber (Membrana, Wuppertal, Germany) with an internal diameter of 1.2 mm, with a 200 μm wall thickness, and with 0.2 μm pores. The ECMI was agitated at 1200 rpm during the experiments with a Vibramax 100 agitator (Heidolph, Kelheim, Germany).
ECMI was performed according to the following procedure; 300 μl acidified sample solution was filled into a polypropylene vial, and the positive electrode was placed in the sample. A 3.1 cm piece of polypropylene hollow fiber was closed in the lower end by mechanical pressure, whereas the upper end was connected to a 2.2 cm length pipette tip of polypropylene as a guiding tube. The hollow fiber and the guiding tube were then inserted through the cap of the sample vial. The hollow fiber was dipped for 5 s in the organic solvent serving as the artificial liquid membrane (typically 2-nitrophenyl octyl ether, nitrobenzene, 1-isopropyl nitrobenzene, octanol or heptanol), and excess of solvent was removed with a medical wipe. With a micro syringe, 30 μL of acceptor solution was filled into the hollow fiber, and the negative electrode was placed in the acceptor solution. Finally, the hollow fiber with acceptor solution was placed into the sample, and voltage (typically 300 V) was applied for 5 minutes. After electrokinetic cross-membrane isolation, the acceptor solution was collected with a micro syringe, and was transferred to a micro insert for the capillary electrophoresis instrument.
Capillary electrophoresis was performed with a MDQ instrument (Beckman, Fullerton, Calif., USA) equipped with a UV-detector. Separations were accomplished in a 75-μm-i.d. fused-silica capillary with an effective length of 20 cm (Beckman). The running buffer was 15 mM phosphate adjusted to pH 2.7 with ortho-phosphoric acid. The instrument was operated at 20 kV, which generated a current level of approximately 50 μA. Samples were introduced by hydrodynamic injection at 0.5 psi for 5 s. Detection was accomplished at 200 nm utilizing a 100×800 μm slit.
Recovery (R) during the cross-membrane isolation was calculated according to the following equation for each analyte: R=na,final/ns,initial×100%=(Va/Vs)(Ca,final/Cs,initial)·100% (1) where ns,initial and na,final are the number of moles of analyte originally present in the sample and the number of moles of analyte finally collected in the acceptor solution, respectively. Va is the volume of acceptor phase, Vs is the volume of sample, Ca,final is the final concentration of analyte in the acceptor phase, and Cs,initial is the initial analyte concentration within the sample.
Enrichment (E) during the cross-membrane isolation was calculated according to the following equation for each analyte: E=Ca,final/Cs,initial (2) Results and Discussion Initial Experiments.

[2] = 1-octanol/water partition coefficient; Clarkes Analysis of Drugs and Poisons; cited from earlier work
[3] = Clarkes Analysis of Drugs and Poisons; cited from earlier work

| SMILES | Recovery [1] | Enrichment [1] | log P [2] | pKa [3] |
| --- | --- | --- | --- | --- |
| CN(C)C(=O)C(CCN1CCC(O)(c2ccc(Cl)cc2)CC1)(c1ccccc1)c1ccccc1 [Loperamide, loperamide hydrochloride] | * | 7.6 | 5.2 | 8.1 |
| CN(C)CCCN1c2ccccc2CCc2ccc(Cl)cc21 [Clomipramine, clomipramine] |  |  | 5.2 |  |
| CNCCC=C1c2ccccc2CCc2ccccc21 [Nortriptyline, nortriptyline hydrochloride] | * | 7.0 | 1.7 |  |
| C[C@H](N)[C@H](O)c1cccc(O)c1 [Metaraminol, metaraminol hydrochloride] |  |  | −0.3 | 8.6 |
| OCCOCCN1CCN(C(c2ccccc2)c2ccc(Cl)cc2)CC1 (centres unmarked) [Hydroxyzine, hydroxyzine] |  |  | 2.4 |  |
| CN[C@@H](C)Cc1ccccc1 [Metamfetamine, methamphetamine sulphate] |  |  |  | 10.1 |
| CN1CCC[C@@H]1CCO[C@](C)(c1ccccc1)c1ccc(Cl)cc1 [Clemastine, clemastine] |  |  | 5.7 | 10.2 |
| COc1ccc(CN(CCN(C)C)c2ccccn2)cc1 [Mepyramine, mepyramine] |  |  | 2.8 |  |
| CCOC(=O)C1(c2ccccc2)CCN(C)CC1 [Pethidine, Pethidine hydrochloride] | * | 7.0 |  |  |
| c1ccc(C2(N3CCCCC3)CCCCC2)cc1 [Phencyclidine, phencyclidine] |  |  | 4.7 |  |
| CC(CN1c2ccccc2Sc2ccccc21)N(C)C (centres unmarked) [Promethazine, promethazine] |  |  | 2.9 |  |
| O=C(CCCN1CCC(O)(c2ccc(Cl)cc2)CC1)c1ccc(F)cc1 [Haloperidol, haloperidol] | * | 7.2 | 3.2 |  |
| CCC(=O)C(CC(C)N(C)C)(c1ccccc1)c1ccccc1 (centres unmarked) [Methadone, methadone hydrochloride] | * | 7.9 |  |  |
| CC(=O)Nc1ccc(OCC(O)CNC(C)C)cc1 (centres unmarked) [Practolol, practolol] |  |  | −1.3 |  |
| OCCN1CCN(CCCN2c3ccccc3Sc3ccc(C(F)(F)F)cc32)CC1 [Fluphenazine, fluphenazine] |  |  | 3.5 |  |
